Test results reported in EP4140481A1, “PROTEIN-OLIGOMER BINDING AGENTS AND THERAPEUTIC USES THEREOF” (Galyan Bio, Inc., priority 2021, dated 2023).

How the values were obtained:
STHdh 111/111 cells = experiment: Gene expression (Nanostring nCounter Mouse Neuropathology Panel); assay type: cell-based
Procedure: (§1) Gene expression of certain transcripts of interest were measured using Nanostring Technology. […] Some STHdh 7/7 and STHdh 111/111 cell samples were not heat shocked and some wells were treated with Compound 22 at the indicated concentration on for 48 hours (Table 17). Some STHdh 7/7 and STHdh 111/111 cell samples were heat shocked for 3 hours some wells were treated with Compound 22 at the indicated concentration on for 48 hours (Table 18). Cells are washed with PBS, trypsinised, and gathered in a 15 ml falcon tube. After a short spin down for 3 minutes at 300 g, the cell pellet was washed with PBS once, before it was frozen down in liquid nitrogen. RNA was extracted with a standard protocol. The nCounter® Mouse Neuropathology Panel (Nanostring, Seattle) was used for gene expression analysis according to the manufacturer's protocols. Table 17. Cell samples that were not subject to heat shock treatment

STHdh 7/7 cells = experiment: as above; assay type: cell-based; conditions: 10 µM or 20 µM, 48 h, in comparison to untreated cells
Procedure: as §1

[1] = treated STHdh 111/111 in comparison to untreated STHdh 111/111

With `Cc1[nH]c2ccc(C(=O)NCCN(C(C)C)C(C)C)cc2c1C` [Compound 22] the “Genes associated with the autophagy pathway” value (STHdh 111/111 cells; 10 µM or 20 µM, 48 h, in comparison to untreated cells) was “upregulated”, the NGFR expression increase (STHdh 111/111 cells; paragraph on the KCNA1 gene (Figure 25 (E)), treated versus untreated STHdh 111/111) was 68% and the Slc32a1 expression upregulation (STHdh 111/111 cells; treated STHdh 111/111 (Q111-10) in comparison to untreated STHdh 111/111) was 12 fold. For the same molecule, the Olig2 expression (STHdh 111/111 cells; [1]) was “doubled”, the Rasgrp1 expression downregulation (STHdh 111/111 cells; [1]) was 29% and the NGFR expression increase (STHdh 111/111 cells; treated STHdh 111/111 in comparison to untreated STHdh 111/111 (Figure 25 (D))) was 60%. The “Genes associated with the autophagy pathway” value (STHdh 7/7 cells) was “upregulated”.
